# Results published in patent US6465613B1, “Hydrophilic somatostatin analogs” (Tulane University, priority 1998, dated 2002).
# Positions of bridges follow the written chain, without caps; N, C: chain ends. Non-standard residues stand in square brackets, D forms with d. Residues, ends and D or L forms follow the SMILES beside them. Phe(4-NH2) = Nc1ccc(C[C@H](N)C(=O)O)cc1; Dab = NCC[C@H](N)C(=O)O
# How the values were obtained:
# [1] = target: T1, human SRIF receptor type 2 (Homo sapiens, UniProt P30874); experiment: Radioligand binding assay, CHO-K1 membranes, 125I-MK-678; conditions: CHO-K1 cell membranes
# T1 construct: expressed in transfected cells; host or cells: CHO-K1 cells (membranes)
# T1 sequence (P30874 whole entry): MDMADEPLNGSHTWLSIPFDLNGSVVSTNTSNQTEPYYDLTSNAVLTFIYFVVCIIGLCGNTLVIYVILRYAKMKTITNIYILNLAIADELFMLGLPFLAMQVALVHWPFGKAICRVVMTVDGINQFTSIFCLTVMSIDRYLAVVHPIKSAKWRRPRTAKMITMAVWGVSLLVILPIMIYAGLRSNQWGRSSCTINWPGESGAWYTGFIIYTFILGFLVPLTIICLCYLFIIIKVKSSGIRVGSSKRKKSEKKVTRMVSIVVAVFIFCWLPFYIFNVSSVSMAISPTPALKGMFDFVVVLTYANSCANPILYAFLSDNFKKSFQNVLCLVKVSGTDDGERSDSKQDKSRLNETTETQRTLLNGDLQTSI
# Protocol: (§1) For this study, cell membranes were obtained from homogenates of CHO-K1 cells (Chinese hamster ovary cells) ectopically expressing one of the five known somatostatin receptor subtypes (the cells were transfected with cDNA encoding a somatostatin receptor subtype, according to standard methods (see, e.g., Ausubel et al., Current Protocols in Molecular Biology, John Wiley & Sons, New York, N.Y., 1994)). […] The final assay volume was 0.3 ml. Incubations were terminated by rapid filtration through GF/C filters pre-soaked in 0.3% polyethylenimine using a 2 Brandel rapid filtration module (48 wells each). Each tube and filter was then washed 3 times with 5 ml aliquots of cold buffer.
# [2] = target: T2, human SRIF receptor type 3 (Homo sapiens, UniProt P32745); experiment: Radioligand binding assay, CHO-K1 membranes, 125I-Tyr11-SRIF; conditions: CHO-K1 cell membranes, 0.05 nM 125I-Tyr11-SRIF
# T2 construct: expressed in transfected cells; host or cells: CHO-K1 cells (membranes)
# T2 sequence (P32745 whole entry): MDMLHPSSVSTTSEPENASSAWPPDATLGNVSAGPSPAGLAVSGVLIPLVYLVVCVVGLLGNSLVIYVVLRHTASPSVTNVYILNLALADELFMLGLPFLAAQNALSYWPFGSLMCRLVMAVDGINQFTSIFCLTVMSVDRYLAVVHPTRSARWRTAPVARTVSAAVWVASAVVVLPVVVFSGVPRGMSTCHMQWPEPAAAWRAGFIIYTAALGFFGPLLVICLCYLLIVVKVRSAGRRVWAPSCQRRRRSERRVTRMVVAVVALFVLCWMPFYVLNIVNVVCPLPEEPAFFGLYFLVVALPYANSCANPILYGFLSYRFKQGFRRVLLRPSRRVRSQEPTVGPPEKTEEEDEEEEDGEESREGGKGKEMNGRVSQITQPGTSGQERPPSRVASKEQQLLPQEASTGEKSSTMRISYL
# Protocol: as §1
# [3] = target: T3, human SRIF receptor type 5 (Homo sapiens, UniProt P35346); experiment: as above; conditions: CHO-K1 cell membranes, 0.05 nM 125I-Tyr11-SRIF
# T3 construct: expressed in transfected cells; host or cells: CHO-K1 cells (membranes)
# T3 sequence (P35346 whole entry): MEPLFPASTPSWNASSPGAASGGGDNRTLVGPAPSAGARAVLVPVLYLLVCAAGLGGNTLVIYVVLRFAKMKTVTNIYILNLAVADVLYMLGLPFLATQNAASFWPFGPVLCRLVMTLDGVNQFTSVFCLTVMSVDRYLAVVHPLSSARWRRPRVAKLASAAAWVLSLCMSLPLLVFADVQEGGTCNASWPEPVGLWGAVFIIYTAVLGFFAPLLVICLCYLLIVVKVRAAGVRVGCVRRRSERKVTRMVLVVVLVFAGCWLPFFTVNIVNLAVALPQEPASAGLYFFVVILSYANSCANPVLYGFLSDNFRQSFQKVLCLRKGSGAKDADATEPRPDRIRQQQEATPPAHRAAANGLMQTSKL
# Protocol: as §1
# [4] = target: T4, human SRIF receptor type 4 (Homo sapiens, UniProt P31391); experiment: as above; conditions: CHO-K1 cell membranes, 0.05 nM 125I-Tyr11-SRIF
# T4 construct: expressed in transfected cells; host or cells: CHO-K1 cells (membranes)
# T4 sequence (P31391 whole entry): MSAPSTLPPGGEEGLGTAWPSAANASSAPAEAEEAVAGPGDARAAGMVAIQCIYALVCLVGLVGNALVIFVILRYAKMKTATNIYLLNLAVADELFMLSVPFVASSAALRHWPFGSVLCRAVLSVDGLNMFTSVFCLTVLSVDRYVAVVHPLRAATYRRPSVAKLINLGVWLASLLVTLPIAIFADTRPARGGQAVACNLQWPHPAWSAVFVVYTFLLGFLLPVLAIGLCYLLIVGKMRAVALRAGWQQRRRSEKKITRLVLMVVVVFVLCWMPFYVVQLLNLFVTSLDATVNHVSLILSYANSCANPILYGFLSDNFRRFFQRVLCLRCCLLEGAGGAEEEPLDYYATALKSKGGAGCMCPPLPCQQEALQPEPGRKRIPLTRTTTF
# Protocol: as §1
# [5] = target: T5, human SRIF receptor type 1 (Homo sapiens, UniProt P30872); experiment: as above; conditions: CHO-K1 cell membranes, 0.05 nM 125I-Tyr11-SRIF
# T5 construct: expressed in transfected cells; host or cells: CHO-K1 cells (membranes)
# T5 sequence (P30872 whole entry): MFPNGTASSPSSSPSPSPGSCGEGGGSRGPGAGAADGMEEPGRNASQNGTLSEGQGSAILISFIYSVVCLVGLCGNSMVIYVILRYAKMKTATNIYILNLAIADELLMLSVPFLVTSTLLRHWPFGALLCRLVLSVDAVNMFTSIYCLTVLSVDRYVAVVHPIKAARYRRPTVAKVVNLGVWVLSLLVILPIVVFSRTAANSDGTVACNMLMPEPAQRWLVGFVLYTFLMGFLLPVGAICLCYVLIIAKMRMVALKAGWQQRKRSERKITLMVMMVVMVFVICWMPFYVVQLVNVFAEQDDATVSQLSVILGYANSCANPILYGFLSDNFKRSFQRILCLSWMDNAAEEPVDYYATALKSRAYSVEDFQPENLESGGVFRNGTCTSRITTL
# Protocol: as §1
Kd [1] [nM],Kd [2] [nM],Kd [3] [nM],Kd [4] [nM],Kd [5] [nM],SMILES
0.36,6.4,13.4,515,4.1,"C[C@@H](O)[C@H](NC(=O)[C@@H]1CSSC[C@H](NC(=O)[C@H](CCCCN)NC(=O)[C@H](Cc2ccc(O)cc2)NC(=O)[C@H](CCCCN)NC(=O)[C@H](Cc2ccc(O)cc2)NC(=O)[C@H](N)CCCCN)C(=O)N[C@@H](Cc2ccccc2)C(=O)N[C@H](Cc2c[nH]c3ccccc23)C(=O)N[C@@H](CCCCN)C(=O)N[C@@H]([C@@H](C)O)C(=O)N1)C(N)=O [JF-05-59, D-Lys-Tyr-Lys-Tyr-Lys-c[Cys-Phe-D-Trp-Lys-Thr-Cys]-Thr-NH2] (H-[dK]YKYKCF[dW]KTCT-NH2; disulfide 6-11)"
0.28,14.6,3.3,> 1000,12.1,"C[C@@H](O)[C@H](NC(=O)[C@@H]1CSSC[C@H](NC(=O)[C@H](CCCNC(=N)N)NC(=O)[C@H](Cc2ccc(O)cc2)NC(=O)[C@H](CCCNC(=N)N)NC(=O)[C@H](Cc2ccc(O)cc2)NC(=O)[C@H](N)CCCNC(=N)N)C(=O)N[C@@H](Cc2ccccc2)C(=O)N[C@H](Cc2c[nH]c3ccccc23)C(=O)N[C@@H](CCCCN)C(=O)N[C@@H]([C@@H](C)O)C(=O)N1)C(N)=O [JF-05-81, D-Arg-Tyr-Arg-Tyr-Arg-c[Cys-Phe-D-Trp-Lys-Thr-Cys]-Thr-NH2] (H-[dR]YRYRCF[dW]KTCT-NH2; disulfide 6-11)"
0.38,15.1,17.3,369,16.9,"C[C@@H](O)[C@H](NC(=O)[C@@H]1CSSC[C@H](NC(=O)[C@H](CCCCN)NC(=O)[C@H](Cc2ccc(O)cc2)NC(=O)[C@@H](CCCCN)NC(=O)[C@@H](Cc2ccc(O)cc2)NC(=O)[C@H](CCCCN)NC(=O)[C@H](Cc2ccc(O)cc2)NC(=O)[C@H](N)CCCCN)C(=O)N[C@@H](Cc2ccccc2)C(=O)N[C@H](Cc2c[nH]c3ccccc23)C(=O)N[C@@H](CCCCN)C(=O)N[C@@H]([C@@H](C)O)C(=O)N1)C(N)=O [JF-05-85, D-Lys-Tyr-Lys-D-Tyr-D-Lys-Tyr-Lys-c[Cys-Phe-D-Trp-Lys-Thr-Cys]-Thr-NH2] (H-[dK]YK[dY][dK]YKCF[dW]KTCT-NH2; disulfide 8-13)"
0.09,20.8,3,> 1000,1.5,"C[C@@H](O)[C@H](NC(=O)[C@@H]1CSSC[C@H](NC(=O)[C@H](CCCCN)NC(=O)[C@H](Cc2ccc(N)cc2)NC(=O)[C@H](CCCCN)NC(=O)[C@H](Cc2ccc(N)cc2)NC(=O)[C@H](N)CCCCN)C(=O)N[C@@H](Cc2ccccc2)C(=O)N[C@H](Cc2c[nH]c3ccccc23)C(=O)N[C@@H](CCCCN)C(=O)N[C@@H]([C@@H](C)O)C(=O)N1)C(N)=O [JF-06-31, D-Lys-Pap-Lys-Pap-Lys-c[Cys-Phe-D-Trp-Lys-Thr-Cys]-Thr-NH2] (H-[dK][Phe(4-NH2)]K[Phe(4-NH2)]KCF[dW]KTCT-NH2; disulfide 6-11)"
0.87,0.91,17,,3.8,"C[C@@H](O)[C@H](NC(=O)[C@@H]1CSSC[C@H](NC(=O)[C@@H](CCCCN)NC(=O)[C@@H](Cc2ccc(O)cc2)NC(=O)[C@@H](CCCCN)NC(=O)[C@@H](Cc2ccc(O)cc2)NC(=O)[C@H](N)CCCCN)C(=O)N[C@@H](Cc2ccccc2)C(=O)N[C@H](Cc2c[nH]c3ccccc23)C(=O)N[C@@H](CCCCN)C(=O)N[C@@H]([C@@H](C)O)C(=O)N1)C(N)=O [JF-06-44, D-Lys-D-Tyr-D-Lys-D-Tyr-D-Lys-c[Cys-Phe-D-Trp-Lys-Thr-Cys]-Thr-NH2] (H-[dK][dY][dK][dY][dK]CF[dW]KTCT-NH2; disulfide 6-11)"
1.37,22.7,115,> 1000,6.2,"C[C@@H](O)[C@H](NC(=O)[C@@H]1CSSC[C@H](NC(=O)[C@H](CCN)NC(=O)[C@H](Cc2ccc(O)cc2)NC(=O)[C@H](CCN)NC(=O)[C@H](Cc2ccc(O)cc2)NC(=O)[C@@H](N)CCN)C(=O)N[C@@H](Cc2ccccc2)C(=O)N[C@H](Cc2c[nH]c3ccccc23)C(=O)N[C@@H](CCCCN)C(=O)N[C@@H]([C@@H](C)O)C(=O)N1)C(N)=O [JF-06-45, Dab-Tyr-Dab-Tyr-Dab-c[Cys-Phe-D-Trp-Lys-Thr-Cys]-Thr-NH2] (H-[Dab]Y[Dab]Y[Dab]CF[dW]KTCT-NH2; disulfide 6-11)"
1.96,4.87,20,> 1000,20.9,"C[C@@H](O)[C@H](NC(=O)[C@@H]1CSSC[C@H](NC(=O)[C@@H](CCCCN)NC(=O)[C@@H](Cc2ccc(O)cc2)NC(=O)[C@H](N)CCCCN)C(=O)N[C@@H](Cc2ccccc2)C(=O)N[C@H](Cc2c[nH]c3ccccc23)C(=O)N[C@@H](CCCCN)C(=O)N[C@@H]([C@@H](C)O)C(=O)N1)C(N)=O [JF-06-50, D-Lys-D-Tyr-D-Lys-c[Cys-Phe-D-Trp-Lys-Thr-Cys]-Thr-NH2] (H-[dK][dY][dK]CF[dW]KTCT-NH2; disulfide 4-9)"
